From ChEMBL document CHEMBL1201862, “PubChem BioAssay data set” (2004)
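Method: 48-hour compound exposure of cells in 96-well plates, five concentrations, linear interpolation of endpoints. Here, GI50 denotes the concentration required for 50% inhibition of growth.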 Activity calls are given as the source filed them. No stated cut-off is given here; in the data, active = GI50 up to about 1.1 µM and inactive = higher.

How the values were obtained:
Test in all cases: NCI-60 cell line screen, 48 h
OVCAR-3 = tested on: OVCAR-3
UACC-257 = tested on: UACC-257
SF-268 = tested on: SF-268
U-251 = tested on: U-251
HOP-62 = tested on: HOP-62
KM12 = tested on: KM12
SF-295 = tested on: SF-295
UACC-62 = tested on: UACC-62
SR = tested on: SR
RXF 393 = tested on: RXF 393
786-0 = tested on: 786-0
CCRF-CEM = tested on: CCRF-CEM
A549 = tested on: A549
SNB-19 = tested on: SNB-19
NCI-H522 = tested on: NCI-H522
NCI-H226 = tested on: NCI-H226
OVCAR-5 = tested on: OVCAR-5
OVCAR-4 = tested on: OVCAR-4
MDA-MB-435 = tested on: MDA-MB-435
CAKI-1 = tested on: CAKI-1

SMILES	GI50 (OVCAR-3)	GI50 (UACC-257)	GI50 (SF-268)	GI50 (U-251)	GI50 (HOP-62)	GI50 (KM12)	GI50 (SF-295)	GI50 (UACC-62)	GI50 (SR)	GI50 (RXF 393)	GI50 (786-0)	GI50 (CCRF-CEM)	GI50 (A549)	GI50 (SNB-19)	GI50 (NCI-H522)	GI50 (NCI-H226)	GI50 (OVCAR-5)	GI50 (OVCAR-4)	GI50 (MDA-MB-435)	GI50 (CAKI-1)
Cn1cc(NC(=O)[C@H]2CCC(N)=N2)cc1C(=O)NCCC(=N)N	> 100 µM (inactive)	> 100 µM (inactive)	> 100 µM (inactive)	> 100 µM (inactive)	> 100 µM (inactive)	> 100 µM (inactive)	> 100 µM (inactive)	> 100 µM (inactive)	> 100 µM (inactive)	> 100 µM (inactive)	> 100 µM (inactive)	> 100 µM (inactive)	> 100 µM (inactive)	> 100 µM (inactive)	> 100 µM (inactive)	> 100 µM (inactive)	–	–	–	–
CCO[C@]12C[C@H](OC)[C@@]3(O)CC(C1[C@H]3O)C13C4C2[C@H](OC)C1[C@](COC)(CN4CC)[C@H](O)C[C@@H]3OC (some centres not stated)	–	> 100 µM (inactive)	> 100 µM (inactive)	–	> 100 µM (inactive)	–	–	> 100 µM (inactive)	> 100 µM (inactive)	> 100 µM (inactive)	–	> 100 µM (inactive)	> 100 µM (inactive)	> 100 µM (inactive)	–	> 100 µM (inactive)	> 100 µM (inactive)	> 100 µM (inactive)	–	–
Fc1ccc2c(c1)SC1=Nc3sc4cc(F)ccc4[n+]3CN12	14.3 µM (inactive)	18.9 µM (inactive)	29.6 µM (inactive)	16.7 µM (inactive)	19.5 µM (inactive)	–	32.1 µM (inactive)	11.1 µM (inactive)	–	26.5 µM (inactive)	18.3 µM (inactive)	–	12.4 µM (inactive)	16.4 µM (inactive)	12.1 µM (inactive)	21.3 µM (inactive)	25.7 µM (inactive)	14.5 µM (inactive)	39.6 µM (inactive)	14.9 µM (inactive)
C[C@H](O)C(=O)SC[C@H](NC(=O)CC[C@@H](N)C(=O)O)C(=O)NCC(=O)O	> 100 µM (inactive)	> 100 µM (inactive)	> 100 µM (inactive)	> 100 µM (inactive)	> 100 µM (inactive)	> 100 µM (inactive)	> 100 µM (inactive)	> 100 µM (inactive)	> 100 µM (inactive)	> 100 µM (inactive)	–	> 100 µM (inactive)	–	–	> 100 µM (inactive)	> 100 µM (inactive)	> 100 µM (inactive)	> 100 µM (inactive)	–	> 100 µM (inactive)
CC1CC/C(=C\c2ccc(Cl)cc2)C(=O)/C1=C\c1ccc(Cl)cc1 (configuration not stated)	–	42.7 µM (inactive)	34.2 µM (inactive)	39.9 µM (inactive)	25.6 µM (inactive)	18.7 µM (inactive)	–	25.4 µM (inactive)	–	33.9 µM (inactive)	34.1 µM (inactive)	41.9 µM (inactive)	35.3 µM (inactive)	> 10 µM (inactive)	–	–	21.6 µM (inactive)	–	36.8 µM (inactive)	20.3 µM (inactive)
COC(=O)C1=C(\c2ccccc2)c2ccccc2C(=O)N(C2CCCCC2)/C=C\1	21.7 µM (inactive)	12.5 µM (inactive)	27.8 µM (inactive)	21 µM (inactive)	21.3 µM (inactive)	13.9 µM (inactive)	28 µM (inactive)	–	–	–	34.6 µM (inactive)	12 µM (inactive)	16 µM (inactive)	29 µM (inactive)	36.4 µM (inactive)	18.2 µM (inactive)	72.9 µM (inactive)	27.7 µM (inactive)	17.9 µM (inactive)	20.9 µM (inactive)
Cc1ccc(NC(=O)C(Cc2c[nH]c3ccccc23)NC(=O)Oc2ccccc2)cc1C (configuration not stated)	34.8 µM (inactive)	> 100 µM (inactive)	50.7 µM (inactive)	80.2 µM (inactive)	> 100 µM (inactive)	23.8 µM (inactive)	> 100 µM (inactive)	54.7 µM (inactive)	–	25.2 µM (inactive)	–	35.1 µM (inactive)	66.4 µM (inactive)	> 100 µM (inactive)	> 100 µM (inactive)	73.1 µM (inactive)	> 100 µM (inactive)	44.3 µM (inactive)	65.2 µM (inactive)	53 µM (inactive)
C=C1[C@@H]2CCC(C)(C)[C@H]1CCC(=O)[C@@H]2C(=O)OC	> 100 µM (inactive)	> 100 µM (inactive)	> 100 µM (inactive)	> 100 µM (inactive)	> 100 µM (inactive)	–	> 100 µM (inactive)	> 100 µM (inactive)	> 100 µM (inactive)	> 100 µM (inactive)	> 100 µM (inactive)	> 100 µM (inactive)	> 100 µM (inactive)	> 100 µM (inactive)	–	> 100 µM (inactive)	–	> 100 µM (inactive)	–	–
O=C(O)C1=CNC(C(=O)O)=NN1	> 100 µM (inactive)	> 100 µM (inactive)	> 100 µM (inactive)	> 100 µM (inactive)	> 100 µM (inactive)	> 100 µM (inactive)	> 100 µM (inactive)	> 100 µM (inactive)	> 100 µM (inactive)	> 100 µM (inactive)	> 100 µM (inactive)	> 100 µM (inactive)	> 100 µM (inactive)	> 100 µM (inactive)	> 100 µM (inactive)	> 100 µM (inactive)	–	> 100 µM (inactive)	–	> 100 µM (inactive)
Cc1ccc(S(=O)(=O)N2c3ccccc3[C@H]3CCc4c([nH]c5ccccc45)[C@H]32)cc1	> 100 µM (inactive)	> 100 µM (inactive)	> 100 µM (inactive)	> 100 µM (inactive)	84.9 µM (inactive)	17.9 µM (inactive)	> 100 µM (inactive)	> 100 µM (inactive)	–	> 100 µM (inactive)	–	70 µM (inactive)	> 100 µM (inactive)	> 100 µM (inactive)	–	15.3 µM (inactive)	> 100 µM (inactive)	0.942 µM (active)	48.3 µM (inactive)	4.33 µM (inactive)
CC(C)=CC1(C)/C(=N\O)C(C)(CC(C)C)C(=O)N1O (configuration not stated)	> 100 µM (inactive)	> 100 µM (inactive)	–	> 100 µM (inactive)	> 100 µM (inactive)	> 100 µM (inactive)	> 100 µM (inactive)	> 100 µM (inactive)	> 100 µM (inactive)	> 100 µM (inactive)	> 100 µM (inactive)	> 100 µM (inactive)	> 100 µM (inactive)	> 100 µM (inactive)	> 100 µM (inactive)	> 100 µM (inactive)	> 100 µM (inactive)	> 100 µM (inactive)	–	> 100 µM (inactive)
COC(=O)C(=O)Cc1nc2ccccc2o1	> 100 µM (inactive)	> 100 µM (inactive)	> 100 µM (inactive)	> 100 µM (inactive)	> 100 µM (inactive)	> 100 µM (inactive)	–	> 100 µM (inactive)	> 100 µM (inactive)	> 100 µM (inactive)	–	> 100 µM (inactive)	–	> 100 µM (inactive)	> 100 µM (inactive)	–	> 100 µM (inactive)	> 100 µM (inactive)	–	–
